# Values of other authors as cited in patent publication US20200323813A1, “TREATMENT OF VIRAL HEMORRHAGIC FEVERS WITH COX-2 SELECTIVE NON-STEROIDAL ANTI-INFLAMMATORY DRUGS” (Tremeau Pharmaceuticals, Inc., priority 2019, published 2020).
# Columns and labels:
# [1] = oral once daily product
# [2] = versus non-selective NSAIDs
# [3] = tested on: platelet aggregation or bleeding time; conditions: doses up to 375 mg/day
smiles,measurement,setting,value
"CS(=O)(=O)c1ccc(C2=C(c3ccccc3)C(=O)OC2)cc1 [Rofecoxib, 4-[4-(methylsulfonyl)phenyl]-3-phenyl-2(5H)-furanone]",half-live,[1],approximately 17 hours
same,median onset of action,acute pain settings,45 min
same,sustained efficacy (duration),single dose,24 h
same,COX-2 versus COX-1 selectivity,COX-2 versus COX-1,35 fold
same,GI tolerability and safety events,[2],significant improvements
same,effect on bleeding time,[3],not affect
same,effect on platelet aggregation,[3],not affect
